Key:
[1] = system: primary human fibroblasts derived from IPF patients (LL29 cells); test: Inhibition of fibrotic process, αSMA staining in TGF-β1 treated LL29 fibroblasts; type: cell-based; details: Fibroblast, 96 h, TGF-β1 20 ng/mL, 4 days; for EC50: % αSMA positive cells; for inhibition at 10 µM: given for EC50 >10 μM, read-out: percent inhibition at 10 μM
In short: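 IPF-patient LL29 lung fibroblasts in 1% FBS medium received compound (11-point, 1:2 dilution, 0.1% DMSO) plus TGF-β1 20 ng/mL, 4 days at 37 °C. Percent αSMA-positive cells among SYTOX-negative cells quantified by immunofluorescence imaging, normalized to TGF-β1/DMSO wells. EC50 by non-linear regression on triplicates; above 10 μM, % inhibition at 10 μM given.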

[2] = system: primary human mesenchymal stem cells (hMSCs); test: Chondrogenesis induction in hMSCs (nodule count, Rhodamine B/Nile Red); type: cell-based; details: 144 h, 6 days; for EC50: concentration required to induce 50% levels of chondrogenesis vs TGF-β3, read-out: Conc (nM) of 50% TGF-β3 activity; for Emax: relative to TGF-β3 (10 ng/mL) positive control, read-out: Max. Activity as % TGF-β3 activity
Procedure: Representative compounds were screened using primary human mesenchymal stem cells (hMSCs) to determine their ability to induce chondrogenesis (process by which cartilage is developed).
Primary human mesenchymal stem cells (hMSCs) were purchased from Lonza (Walkersville, Md.) and expanded in Mesenchymal Stem Cell Growth Media (Lonza). Cells between passage 3 and 6 were used for the experiments.
Each compound was dissolved in DMSO as a 10 mM stock and used to prepare compound source plates. Serial dilution (1:3, 6-point dose-response curves from 2700 nM to 10 nM) and compound transfer was performed using the ECHO 550 (Labcyte, Sunnyvale, Calif.) into 96-well clear bottom assay plates (Greiner Bio-One) with appropriate DMSO backfill for a final DMSO concentration of 0.03%. hMSCs were plated at 20,000 cells/well in 250 μL/well Incomplete Chondrogenic Induction Medium (Lonza; DMEM, dexamethasone, ascorbate, insulin-transferrin-selenium [ITS supplement], gentamycin-amphotericin [GA-1000], sodium pyruvate, proline and L-glutamine). TGF-β3 (10 ng/mL) was used as a positive control for differentiation while negative control wells were treated with 75 nL DMSO for normalization and calculating EC50 values. Cells were incubated at 37° C. and 5% CO2 for 6 days. To image chondrogenic nodules, the cells were fixed using 4% formaldehyde (Electron Microscopy Sciences), and stained with 2 μg/mL Rhodamine B (Sigma-Aldrich) and 20 μM Nile Red (Sigma-Aldrich) [Johnson K., et. al, A Stem Cell-Based Approach to Cartilage Repair, Science, (2012), 336(6082), 717-721]. The nodules imaged (4 images per well at 4× magnification) by excitation at 531 nm and emission at 625 nm and quantified using the CellInsight CX5 (Thermo Scientific). Number of nodules in each well was normalized to the average of 3 DMSO treated wells on the same plate using Excel (Microsoft Inc.). The normalized averages (fold change over DMSO) of 3 replicate wells for each compound concentration were calculated. Due to solubility limitations of some of the compounds, curve fitting was incomplete leading to inaccurate EC50 determinations.
Using TGF-β3 as a positive control, the concentration of representative compounds required to induce 50% levels of chondrogenesis is reported. In addition, the maximum activity of each compound and the respective dose that each compound reached maximum chondrogenesis activity is reported.

Structure (SMILES): c1ccc(CNCc2cncc(-c3cnc4[nH]nc(-c5cc6c(-c7ccncc7)ccnc6[nH]5)c4c3)c2)cc1 [Compound 136, N-Benzyl-1-(5-(3-(4-(pyridin-4-yl)-1H-pyrrolo[2,3-b]pyridin-2-yl)-1H-pyrazolo[3,4-b]pyridin-5-yl)pyridin-3-yl)methanamine]
- EC50 [1]: 3040 nM
- EC50 [2]: 2700 nM
- Emax [2]: 93%

Structure (SMILES): CCNCc1cncc(-c2cnc3[nH]nc(-c4cc5c(-c6ccccc6F)ccnc5[nH]4)c3c2)c1 [Compound 62, N-((5-(3-(4-(2-Fluorophenyl)-1H-pyrrolo[2,3-b]pyridin-2-yl)-1H-pyrazolo [3,4-b]pyridin-5-yl)pyridin-3-yl)methyl)ethanamine]
- EC50 [1]: > 10000 nM
- inhibition at 10 µM [1]: 0%
- EC50 [2]: 100 nM
- Emax [2]: 55%

Structure (SMILES): CN1CCN(c2ccnc3[nH]c(-c4n[nH]c5ncc(-c6cn[nH]c6)cc45)cc23)CC1 [Compound 635, 3-(4-(4-Methylpiperazin-1-yl)-1H-pyrrolo[2,3-b]pyridin-2-yl)-5-(1H-pyrazol-4-yl)-1H-pyrazolo[3,4-b]pyridine]
- EC50 [1]: > 10000 nM
- inhibition at 10 µM [1]: 26%
- Emax [2]: 20%

Structure (SMILES): Cc1ccncc1-c1cnc2[nH]nc(-c3cc4c(-c5ccc(F)cc5)ccnc4[nH]3)c2c1 [Compound 33, 3-(4-(4-Fluorophenyl)-1H-pyrrolo[2,3-b]pyridin-2-yl)-5-(4-methylpyridin-3-yl)-1H-pyrazolo[3,4-b]pyridine]
- EC50 [1]: 4510 nM
- EC50 [2]: 900 nM
- Emax [2]: 108%

Structure (SMILES): CCNCc1cncc(-c2cnc3[nH]nc(-c4cc5c(-c6cccnc6)ccnc5[nH]4)c3c2)c1 [Compound 90, N-((5-(3-(4-(Pyridin-3-yl)-1H-pyrrolo[2,3-b]pyridin-2-yl)-1H-pyrazolo[3,4-b]pyridin-5-yl)pyridin-3-yl)methyl)ethanamine]
- EC50 [1]: > 10000 nM
- inhibition at 10 µM [1]: 5.1%
- EC50 [2]: 10 nM
- Emax [2]: 92%

Structure (SMILES): Fc1ccc(-c2ccnc3[nH]c(-c4n[nH]c5ncc(-c6cncc(CN7CCCC7)c6)cc45)cc23)cc1 [Compound 42, 3-(4-(4-Fluorophenyl)-1H-pyrrolo[2,3-b]pyridin-2-yl)-5-(5-(pyrrolidin-1-ylmethyl)pyridin-3-yl)-1H-pyrazolo[3,4-b]pyridine]
- EC50 [1]: 4980 nM
- Emax [2]: 25%

Structure (SMILES): CCCC(=O)Nc1cncc(-c2cnc3[nH]nc(-c4cc5c(-c6ccncc6)ccnc5[nH]4)c3c2)c1 [Compound 129, N-(5-(3-(4-(Pyridin-4-yl)-1H-pyrrolo[2,3-b]pyridin-2-yl)-1H-pyrazolo[3,4-b]pyridin-5-yl)pyridin-3-yl)butyramide]
- EC50 [1]: 621 nM
- EC50 [2]: 30 nM
- Emax [2]: 50%

Structure (SMILES): CC(C)(C)CC(=O)Nc1cncc(-c2cnc3[nH]nc(-c4cc5cccnc5[nH]4)c3c2)c1 [Compound 268, N-(5-(3-(1H-Pyrrolo[2,3-b]pyridin-2-yl)-1H-pyrazolo[3,4-b]pyridin-5-yl)pyridin-3-yl)-3,3-dimethylbutanamide]
- EC50 [1]: 420 nM
- Emax [2]: 23%

Structure (SMILES): CCCCC(=O)Nc1cncc(-c2cnc3[nH]nc(-c4cc5c(-c6ccccc6F)ccnc5[nH]4)c3c2)c1 [Compound 75, N-(5-(3-(4-(2-Fluorophenyl)-1H-pyrrolo[2,3-b]pyridin-2-yl)-1H-pyrazolo [3,4-b]pyridin-5-yl)pyridin-3-yl)pentanamide]
- EC50 [1]: > 10000 nM
- inhibition at 10 µM [1]: 0%
- EC50 [2]: 30 nM
- Emax [2]: 82%

Reference: patent US10285983B2, “3-(1H-pyrrolo[2,3-B]pyridin-2-yl)-1H-pyrazolo[3,4-B] pyridines and therapeutic uses thereof” (Samumed, LLC, priority 2015, dated 2019)
